Data on eight molecules can be found in ChEMBL document CHEMBL1201862, “PubChem BioAssay data set” (2004).

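Results reflect a 48-hour exposure of cells in 96-well plates to compound at five concentrations. GI50: concentration for 50% inhibition of growth.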 Activity calls are given as the source filed them. No stated cut-off is given here; in the data, active = GI50 up to about 1.1 µM and inactive = higher. Where only a bound is given, the exact number is not on record here.

A word on the GI50: it is the concentration that inhibits growth by half.

Test systems include COLO 205; DU-145; HCT-116; IGROV-1; KM12; LOX IMVI; M14; MOLT-4; NCI-H460; NCI-H522; NCI/ADR-RES; OVCAR-8; SF-268; SK-MEL-28; SN12C; SW-620; OVCAR-4; RPMI-8226; TK-10; U-251.
Assay in all cases: DTP human tumour cell line panel, 48 h

`O=C(NN1C(=O)/C(=C/c2ccc(Cl)cc2)N=C1c1ccccc1)c1c(Cl)c(Cl)c(Cl)c(Cl)c1-c1nc2ccccc2[nH]1`: the GI50 was 22.6 µM (inactive) in the assay with COLO 205; 17.7 µM (inactive) with DU-145; 15.6 µM (inactive) in the assay on HCT-116; 2.47 µM (inactive) in the assay with IGROV-1; 4.15 µM (inactive) in the assay on KM12; 8.79 µM (inactive) in the assay with LOX IMVI. Further, the GI50 in the assay on M14 was 17.3 µM (inactive); with MOLT-4, 6.93 µM (inactive); with NCI-H460, < 0.01 µM (active); in the assay on NCI-H522, 18.2 µM (inactive); in the assay on NCI/ADR-RES it was 15.3 µM (inactive); in the assay on OVCAR-8, 27.9 µM (inactive). In addition, the GI50 is 14.6 µM (inactive) in the assay on SF-268, 20.3 µM (inactive) with SK-MEL-28, 24.1 µM (inactive) in the assay with SN12C and 20.6 µM (inactive) in the assay with SW-620.

Turning to `CN1CN(c2ccccc2)C2(CCN(Cc3nc4ccccc4s3)CC2)C1=O`, the GI50 in the assay on COLO 205 is 18.1 µM (inactive); in the assay on DU-145, 17.9 µM (inactive); in the assay on HCT-116, 14.8 µM (inactive); in the assay on IGROV-1 it was 15.7 µM (inactive); in the assay on LOX IMVI, 17.3 µM (inactive); in the assay with M14, 13.5 µM (inactive). Moreover, the GI50 with MOLT-4 is 15.1 µM (inactive); with NCI/ADR-RES it was 15.5 µM (inactive); with OVCAR-4, 18.6 µM (inactive); in the assay with OVCAR-8 it was 14.4 µM (inactive); in the assay with RPMI-8226 it was 16 µM (inactive); with SF-268, 20.3 µM (inactive). Further, the GI50 in the assay on SK-MEL-28 was 17.3 µM (inactive); in the assay on SN12C it was 17.5 µM (inactive); in the assay with TK-10 it was 16.3 µM (inactive); with U-251, 16.1 µM (inactive).

In the case of `O=C(CNCc1ccccc1)Oc1c(Cl)c(Cl)c(Cl)c(Cl)c1Cl`, the GI50 in the assay with COLO 205 is 25 µM (inactive); with DU-145, 15.9 µM (inactive); in the assay with HCT-116, > 100 µM (inactive); in the assay with IGROV-1 it was 33.1 µM (inactive); with KM12, 21.8 µM (inactive); in the assay with LOX IMVI, 29.6 µM (inactive). The GI50 in the assay with M14 was 77.8 µM (inactive); in the assay with MOLT-4, 22.3 µM (inactive); with NCI-H460, 38.9 µM (inactive); in the assay on NCI-H522 it was 25.3 µM (inactive); with NCI/ADR-RES, 33.7 µM (inactive); in the assay on OVCAR-4, 44.1 µM (inactive). Also, the GI50 in the assay on OVCAR-8 was 21.4 µM (inactive); with SF-268, 37.5 µM (inactive); in the assay with SK-MEL-28, 38.5 µM (inactive); in the assay on SN12C, 31.2 µM (inactive); with SW-620, 32.5 µM (inactive); with TK-10, 37.7 µM (inactive). Besides, the GI50 in the assay with U-251 was 28.5 µM (inactive).

`C/C(=N\O)C1CC2C=C(C#N)C1N(Cc1ccccc1)C2` (stereo unspecified): the GI50 with COLO 205, in the assay on DU-145, in the assay with HCT-116, in the assay on KM12, in the assay on LOX IMVI and with M14 was > 100 µM (inactive) throughout. In addition, the GI50 is > 100 µM (inactive) with MOLT-4; 74.5 µM (inactive) in the assay with NCI-H460; > 100 µM (inactive) with NCI/ADR-RES; 45.3 µM (inactive) in the assay with OVCAR-8; > 100 µM (inactive) in the assay with RPMI-8226; > 100 µM (inactive) with SF-268. The GI50 was > 100 µM (inactive) in the assay with SK-MEL-28; > 100 µM (inactive) in the assay on SN12C; > 100 µM (inactive) with SW-620; > 100 µM (inactive) in the assay with TK-10; 46.3 µM (inactive) in the assay on U-251.

Regarding `CCOC(=O)c1nc2ccc(C(F)(F)F)cc2nc1Oc1ccc(C(=O)OC)cc1`, the GI50 with COLO 205 was > 100 µM (inactive); in the assay on DU-145, 55.7 µM (inactive); in the assay on HCT-116 it was > 100 µM (inactive); in the assay on IGROV-1, 59.4 µM (inactive); in the assay with KM12, 56.4 µM (inactive); in the assay on LOX IMVI, > 100 µM (inactive). Moreover, the GI50 in the assay with M14 was 57.1 µM (inactive); in the assay with MOLT-4, > 100 µM (inactive); in the assay with NCI-H460, 54.5 µM (inactive); in the assay with NCI/ADR-RES, > 100 µM (inactive); in the assay with OVCAR-4 it was 98.4 µM (inactive); in the assay on OVCAR-8, > 100 µM (inactive). Further, the GI50 is > 100 µM (inactive) with RPMI-8226; 76.4 µM (inactive) in the assay on SF-268; 86.1 µM (inactive) in the assay on SK-MEL-28; > 100 µM (inactive) with SW-620; 45.8 µM (inactive) with TK-10; 36.1 µM (inactive) in the assay on U-251.

Take `CCOP(=O)(C=C=C(C)C)OCC`: the GI50 with COLO 205, in the assay with DU-145, with HCT-116, in the assay with IGROV-1, in the assay on KM12 and with LOX IMVI was > 100 µM (inactive) each time. The GI50 was > 100 µM (inactive) in the assay on M14; > 100 µM (inactive) with NCI-H460; 36.4 µM (inactive) in the assay on NCI-H522; > 100 µM (inactive) in the assay on NCI/ADR-RES; > 100 µM (inactive) with OVCAR-4; > 100 µM (inactive) in the assay on OVCAR-8. Further, the GI50 in the assay on SF-268, in the assay with SK-MEL-28, with SN12C, in the assay with SW-620, with TK-10 and in the assay with U-251 was > 100 µM (inactive) each time.

For `COc1ccc(C2C3=C(N=C4SC(C(C)=O)=C(C)N42)c2ccccc2CC3)cc1` (stereo unspecified), the GI50 was > 100 µM (inactive) in the assay on COLO 205; > 100 µM (inactive) with DU-145; 15 µM (inactive) in the assay on HCT-116; 10.1 µM (inactive) in the assay on IGROV-1; 38.6 µM (inactive) in the assay with KM12; 63.8 µM (inactive) in the assay with LOX IMVI. For the same molecule, the GI50 with M14 was > 100 µM (inactive); with NCI/ADR-RES, > 10 µM (inactive); with OVCAR-4 it was > 100 µM (inactive); in the assay with OVCAR-8, > 100 µM (inactive); with RPMI-8226 it was 4.91 µM (inactive); in the assay with SF-268, > 100 µM (inactive). The GI50 with SK-MEL-28 is > 100 µM (inactive); in the assay with SN12C it was > 100 µM (inactive); with SW-620, > 100 µM (inactive); with U-251 it was 57.9 µM (inactive).

`O=C(NN=C(c1ccccc1)c1ccccc1)/C(O)=C/C(=O)c1ccc(Cl)cc1`: the GI50 in the assay on COLO 205 was 19.9 µM (inactive); with DU-145, 73.1 µM (inactive); with HCT-116 it was 31.5 µM (inactive); in the assay on IGROV-1 it was 27.7 µM (inactive); in the assay on KM12 it was 45 µM (inactive); with M14, > 100 µM (inactive). Also, the GI50 is 35 µM (inactive) with MOLT-4; 5.5 µM (inactive) in the assay with NCI-H460; 13.5 µM (inactive) in the assay on NCI-H522; 20.7 µM (inactive) in the assay on NCI/ADR-RES; 45.4 µM (inactive) in the assay on OVCAR-4; 30.1 µM (inactive) in the assay with OVCAR-8. Also, the GI50 is 36.9 µM (inactive) with SF-268, 27.9 µM (inactive) with SN12C, 48.5 µM (inactive) with TK-10 and 39.1 µM (inactive) in the assay with U-251.
